According to patent publication US20090270371A1, “QUINOLINE DERIVATIVES USEFUL IN THE TREATMENT OF MGLUR5 RECEPTOR-MEDIATED DISORDERS” (priority 2005, published 2009):

These molecules were tested against T1, rat mGluR5 receptors (Rattus norvegicus, UniProt P31424) (assay: mGluR5 receptor binding test, rat cerebro-cortical membrane preparation, [3H]-M-MPEP). Conditions: affinity for rat mGluR5 receptors; [3H]-M-MPEP (2 nM) radioligand.
T1 construct: rat cerebro-cortical membrane preparation was used; from tissue; host or cells: rat cerebral cortex membranes
T1 sequence (P31424 21-1203): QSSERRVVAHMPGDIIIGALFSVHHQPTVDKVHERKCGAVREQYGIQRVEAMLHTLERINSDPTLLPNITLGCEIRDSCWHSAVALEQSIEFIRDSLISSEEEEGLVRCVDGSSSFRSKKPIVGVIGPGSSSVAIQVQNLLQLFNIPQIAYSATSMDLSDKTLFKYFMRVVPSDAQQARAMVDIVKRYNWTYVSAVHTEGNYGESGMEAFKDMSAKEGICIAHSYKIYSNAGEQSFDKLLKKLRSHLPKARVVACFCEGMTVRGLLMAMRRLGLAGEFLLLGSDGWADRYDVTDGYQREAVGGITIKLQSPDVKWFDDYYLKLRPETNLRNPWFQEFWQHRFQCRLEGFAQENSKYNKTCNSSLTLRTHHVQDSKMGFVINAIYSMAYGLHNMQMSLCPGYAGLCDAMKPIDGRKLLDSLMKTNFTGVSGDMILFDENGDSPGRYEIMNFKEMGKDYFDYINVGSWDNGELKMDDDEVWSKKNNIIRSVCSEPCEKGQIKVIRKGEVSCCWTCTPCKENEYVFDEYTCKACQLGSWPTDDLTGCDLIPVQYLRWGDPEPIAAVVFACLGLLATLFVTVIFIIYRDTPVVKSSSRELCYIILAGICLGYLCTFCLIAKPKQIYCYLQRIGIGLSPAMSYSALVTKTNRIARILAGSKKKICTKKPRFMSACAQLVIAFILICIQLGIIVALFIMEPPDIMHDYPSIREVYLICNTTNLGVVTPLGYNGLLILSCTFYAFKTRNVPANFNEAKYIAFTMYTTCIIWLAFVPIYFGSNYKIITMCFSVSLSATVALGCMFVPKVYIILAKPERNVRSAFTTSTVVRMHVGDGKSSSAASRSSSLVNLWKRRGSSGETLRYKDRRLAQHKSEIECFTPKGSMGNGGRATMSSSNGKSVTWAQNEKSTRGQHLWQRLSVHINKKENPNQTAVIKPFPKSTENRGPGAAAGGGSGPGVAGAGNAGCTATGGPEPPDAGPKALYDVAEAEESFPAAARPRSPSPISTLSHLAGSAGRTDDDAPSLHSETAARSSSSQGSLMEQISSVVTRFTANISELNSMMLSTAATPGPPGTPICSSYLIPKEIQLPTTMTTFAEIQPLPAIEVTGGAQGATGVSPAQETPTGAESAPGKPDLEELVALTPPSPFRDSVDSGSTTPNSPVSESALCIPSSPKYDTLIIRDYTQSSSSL
Procedure: The mGluR5 receptor binding was determined according to the modified method of Gasparini et. al. (Bioorg. Med. Chem. Lett., 2000, 12, 407). Based on the high homology between the human and rat mGluR5 receptors, rat cerebro-cortical membrane preparation was used to determine the binding characteristics of the reference compounds and novel compounds to the rat mGluR5. The A18 cell line expressing hmGluR5a (purchased from Euroscreen) was used to determine binding characteristics of the chemical compounds to the human mGluR5a receptor. [^3H]-M-MPEP (2 nM) was used as radioligand. The nonspecific binding was determined in the presence of 10 μM M-MPEP.
`Cc1ccc(S(=O)(=O)c2cnc3ccccc3c2N2CCN(Cc3ccccc3)CC2)cc1` [Compound 80] gave a Ki of over 500 nM.
With `CCOC(=O)C1CCN(c2c(S(=O)(=O)c3ccccc3)cnc3ccc(CC)cc23)CC1` [Compound 81] the Ki was over 500 nM.
`O=S(=O)(c1ccccc1)c1cnc2cc3c(cc2c1N1CCCC1)OCCO3` [Compound 82] gave a Ki of over 500 nM.
`CCc1ccc2ncc(S(=O)(=O)c3ccc(C)cc3)c(N(CC)CC)c2c1` [Compound 83] showed a Ki of over 500 nM.
`CCc1ccc2ncc(S(=O)(=O)c3ccc(Cl)cc3)c(N(CC)CC)c2c1` [Compound 84] showed a Ki of over 500 nM.
With `CCc1ccc2ncc(S(=O)(=O)c3ccc(C)cc3)c(NCc3ccccc3)c2c1` [Compound 85] the Ki was over 500 nM.
`Cc1ccc(S(=O)(=O)c2cnc3ccc(C)cc3c2N2CCCCCC2)cc1` [Compound 86] gave a Ki of over 500 nM.
In the case of `COc1ccc2ncc(S(=O)(=O)c3ccc(C)cc3)c(NCc3ccccc3)c2c1` [Compound 87], the Ki is reported as over 500 nM.
`COc1ccc(S(=O)(=O)c2cnc3ccc(OC)cc3c2N2CCC(C)CC2)cc1` [Compound 88] showed a Ki of over 500 nM.
`O=S(=O)(c1ccccc1)c1cnc2ccccc2c1N1CCCCCC1` [Compound 89] gave a Ki of 200 to 500 nM.
`Cc1ccc2ncc(S(=O)(=O)c3ccccc3)c(N3CCN(Cc4ccccc4)CC3)c2c1` [Compound 90] showed a Ki of over 500 nM.
In the case of `Cc1ccc(S(=O)(=O)c2cnc3cc4c(cc3c2N2CCC(C)CC2)OCCO4)cc1` [Compound 92], the Ki is reported as over 500 nM.
`Cc1ccc2ncc(S(=O)(=O)c3ccc(Cl)cc3)c(N3CCCCC3)c2c1` [Compound 93] gave a Ki of over 500 nM.
With `Cc1ccc(S(=O)(=O)c2cnc3cc4c(cc3c2N2CCOCC2)OCCO4)cc1` [Compound 94] the Ki was over 500 nM.
`O=S(=O)(c1ccccc1)c1cnc2cc3c(cc2c1N1CCCCCC1)OCCO3` [Compound 95] gave a Ki of over 500 nM.
Work on `CCc1ccc2ncc(S(=O)(=O)c3ccc(C)cc3)c(N3CCCCC3)c2c1` [Compound 96] yielded a Ki of over 500 nM.
`Cc1ccc(S(=O)(=O)c2cnc3ccccc3c2N2CCC3(CC2)OCCO3)cc1` [Compound 97] was tested, and the Ki was over 500 nM.
For `CCOC(=O)C1CCN(c2c(S(=O)(=O)c3ccc(C)cc3)cnc3ccc(OCC)cc23)CC1` [Compound 98], the Ki was over 500 nM.
In the case of `CCOC(=O)C1CCCN(c2c(S(=O)(=O)c3ccc(C)cc3)cnc3ccc(F)cc23)C1` (stereo not shown) [Compound 99], the Ki is reported as over 500 nM.
Work on `O=S(=O)(c1ccc(Cl)cc1)c1cnc2ccc(F)cc2c1N1CCN(Cc2ccccc2)CC1` [Compound 100] yielded a Ki of over 500 nM.
Molecule `Cc1ccc(S(=O)(=O)c2cnc3ccccc3c2N2CCOCC2)cc1` [Compound 101] has a Ki of over 500 nM.
For `CCOc1ccc2ncc(S(=O)(=O)c3ccc(OC)cc3)c(N3CCC(C)CC3)c2c1` [Compound 102], the Ki was over 500 nM.
`COc1ccc2ncc(S(=O)(=O)c3ccc(C)cc3)c(NCc3ccc(F)cc3)c2c1` [Compound 103] gave a Ki of over 500 nM.
`Cc1ccc(S(=O)(=O)c2cnc3ccc(C)cc3c2N2CCOCC2)cc1` [Compound 104] gave a Ki of over 500 nM.
For `CCc1ccc2ncc(S(=O)(=O)c3ccc(Cl)cc3)c(N3CCOCC3)c2c1` [Compound 105], the Ki was over 500 nM.
Work on `COc1ccc2ncc(S(=O)(=O)c3ccc(Cl)cc3)c(N3CCN(Cc4ccccc4)CC3)c2c1` [Compound 106] yielded a Ki of over 500 nM.
`O=S(=O)(c1ccccc1)c1cnc2ccc(F)cc2c1N1CCCCC1` [Compound 107] showed a Ki of over 500 nM.
`CC1CCN(c2c(S(=O)(=O)c3ccccc3)cnc3ccc(Cl)cc23)CC1` [Compound 108] was tested, and the Ki was over 500 nM.
Work on `COc1ccc2ncc(S(=O)(=O)c3ccccc3)c(N3CCC(C)CC3)c2c1` [Compound 109] yielded a Ki of over 500 nM.
`CCN(CC)c1c(S(=O)(=O)c2ccc(C)cc2)cnc2ccc(OC)cc12` [Compound 110] showed a Ki of over 500 nM.
`COc1ccc2ncc(S(=O)(=O)c3ccccc3)c(N3CCN(Cc4ccccc4)CC3)c2c1` [Compound 111] was tested, and the Ki was over 500 nM.
Work on `COc1ccc2ncc(S(=O)(=O)c3ccc(Cl)cc3)c(N3CCCCCC3)c2c1` [Compound 112] yielded a Ki of over 500 nM.
`COc1cccc(Nc2c(S(=O)(=O)c3ccc(C)cc3)cnc3ccccc23)c1` [Compound 113] showed a Ki of over 500 nM.
Work on `CCOc1ccc2ncc(S(=O)(=O)c3ccc(C)cc3)c(N3CCC(C)CC3)c2c1` [Compound 114] yielded a Ki of over 500 nM.
`O=S(=O)(c1ccccc1)c1cnc2cc3c(cc2c1N1CCN(c2ccccc2)CC1)OCCO3` [Compound 115] showed a Ki of over 500 nM.
Work on `CCOc1ccc2ncc(S(=O)(=O)c3ccccc3)c(N3CCC(C)CC3)c2c1` [Compound 116] yielded a Ki of over 500 nM.
In the case of `CCOc1ccc2ncc(S(=O)(=O)c3ccc(C)cc3)c(N3CCN(c4ccccc4F)CC3)c2c1` [Compound 117], the Ki is reported as over 500 nM.
With `O=S(=O)(c1ccccc1)c1cnc2ccc(F)cc2c1N1CCCCCC1` [Compound 118] the Ki was over 500 nM.
In the case of `CCOc1ccc2ncc(S(=O)(=O)c3ccc(C)cc3)c(N3CCCCCC3)c2c1` [Compound 119], the Ki is reported as over 500 nM.
In the case of `O=S(=O)(c1ccc(Cl)cc1)c1cnc2ccc(F)cc2c1N1CCOCC1` [Compound 120], the Ki is reported as over 500 nM.
Work on `COc1ccc2ncc(S(=O)(=O)c3ccc(C)cc3)c(NCc3ccc(C)cc3)c2c1` [Compound 121] yielded a Ki of over 500 nM.
In the case of `COc1ccc(S(=O)(=O)c2cnc3ccc(Cl)cc3c2NCc2ccc(C)cc2)cc1` [Compound 122], the Ki is reported as over 500 nM.
Molecule `Cc1ccc2ncc(S(=O)(=O)c3ccc(Cl)cc3)c(N3CCN(c4ccccc4)CC3)c2c1` [Compound 123] has a Ki of over 500 nM.
Work on `CCN(CC)c1c(S(=O)(=O)c2ccccc2)cnc2ccc(F)cc12` [Compound 124] yielded a Ki of over 500 nM.
`CCOc1ccc2ncc(S(=O)(=O)c3ccc(OC)cc3)c(N3CCOCC3)c2c1` [Compound 125] gave a Ki of over 500 nM.
Work on `CCc1ccc2ncc(S(=O)(=O)c3ccc(OC)cc3)c(N3CCN(C)CC3)c2c1` [Compound 127] yielded a Ki of over 500 nM.
`COc1ccc2ncc(S(=O)(=O)c3ccccc3)c(N3CCN(C)CC3)c2c1` [Compound 128] gave a Ki of over 500 nM.
`CCOC(=O)N1CCN(c2c(S(=O)(=O)c3ccc(Cl)cc3)cnc3ccccc23)CC1` [Compound 129] was tested, and the Ki was over 500 nM.
`CCc1ccc2ncc(S(=O)(=O)c3ccc(C)cc3)c(NCc3ccc(F)cc3)c2c1` [Compound 130] gave a Ki of over 500 nM.
Work on `CCOC(=O)N1CCN(c2c(S(=O)(=O)c3ccc(Cl)cc3)cnc3ccc(C)cc23)CC1` [Compound 131] yielded a Ki of 200 to 500 nM.
Work on `CCOC(=O)N1CCN(c2c(S(=O)(=O)c3ccc(C)cc3)cnc3ccc(C)cc23)CC1` [Compound 132] yielded a Ki of over 500 nM.
Molecule `CCN(CC)c1c(S(=O)(=O)c2ccc(Cl)cc2)cnc2ccc(F)cc12` [Compound 133] has a Ki of over 500 nM.
`CCc1ccc2ncc(S(=O)(=O)c3ccc(OC)cc3)c(N3CCCCC3)c2c1` [Compound 134] gave a Ki of over 500 nM.
`O=S(=O)(c1ccccc1)c1cnc2cc3c(cc2c1N1CCCCC1)OCCO3` [Compound 135] was tested, and the Ki was over 500 nM.
For `CC1CCN(c2c(S(=O)(=O)c3ccccc3)cnc3ccc(F)cc23)CC1` [Compound 136], the Ki was over 500 nM.
For `CC1CCN(c2c(S(=O)(=O)c3ccc(Cl)cc3)cnc3ccc(F)cc23)CC1` [Compound 137], the Ki was under 200 nM.
`CC1CCN(c2c(S(=O)(=O)c3cc(Cl)cc(Cl)c3)cnc3ccc(F)cc23)CC1` [Compound 138] showed a Ki of 200 to 500 nM.
For `CC1CCN(c2c(S(=O)(=O)c3cc(F)cc(F)c3)cnc3ccc(F)cc23)CC1` [Compound 139], the Ki was over 500 nM.
`CC1CCN(c2c(S(=O)(=O)c3cccc(C#N)c3)cnc3ccc(F)cc23)CC1` [Compound 140] gave a Ki of under 200 nM.
In the case of `CC1CCN(c2c(S(=O)(=O)c3ccc(F)cc3)cnc3ccc(F)cc23)CC1` [Compound 141], the Ki is reported as under 200 nM.
`COc1ccc(S(=O)(=O)c2cnc3ccc(F)cc3c2N2CCC(C)CC2)cc1` [Compound 142] was tested, and the Ki was under 200 nM.
With `COc1ccc(S(=O)(=O)c2cnc3ccc(F)cc3c2N2CCC(C)CC2)cc1OC` [Compound 143] the Ki was 200 to 500 nM.
In the case of `CC1CCN(c2c(S(=O)(=O)c3cccc(F)c3)cnc3ccc(F)cc23)CC1` [Compound 144], the Ki is reported as 200 to 500 nM.
For `COc1cccc(S(=O)(=O)c2cnc3ccc(F)cc3c2N2CCC(C)CC2)c1` [Compound 145], the Ki was under 200 nM.
With `Cc1ccc(S(=O)(=O)c2cnc3ccc(F)cc3c2N2CCC(C)CC2)cc1C` [Compound 146] the Ki was under 200 nM.
`COc1ccc(S(=O)(=O)c2cnc3ccc(F)cc3c2N2CCC(C)CC2)cc1Cl` [Compound 147] showed a Ki of under 200 nM.
With `CC1CCN(c2c(S(=O)(=O)c3cccc(Cl)c3)cnc3ccc(F)cc23)CC1` [Compound 148] the Ki was under 200 nM.
With `CC1CCN(c2c(S(=O)(=O)c3ccc(Cl)c(Cl)c3)cnc3ccc(F)cc23)CC1` [Compound 149] the Ki was under 200 nM.
Molecule `CC1CCN(c2c(S(=O)(=O)c3ccc(C#N)cc3)cnc3ccc(F)cc23)CC1` [Compound 150] has a Ki of 200 to 500 nM.
Molecule `Cc1cc(C)cc(S(=O)(=O)c2cnc3ccc(F)cc3c2N2CCC(C)CC2)c1` [Compound 151] has a Ki of under 200 nM.
`CC1CCN(c2c(S(=O)(=O)c3ccc(F)c(F)c3)cnc3ccc(F)cc23)CC1` [Compound 152] showed a Ki of under 200 nM.
`Cc1ccc2ncc(S(=O)(=O)c3cc(Cl)cc(Cl)c3)c(N3CCC(C)CC3)c2c1` [Compound 153] showed a Ki of 200 to 500 nM.
In the case of `Cc1ccc2ncc(S(=O)(=O)c3cc(F)cc(F)c3)c(N3CCC(C)CC3)c2c1` [Compound 154], the Ki is reported as 200 to 500 nM.
In the case of `Cc1ccc2ncc(S(=O)(=O)c3cccc(C#N)c3)c(N3CCC(C)CC3)c2c1` [Compound 155], the Ki is reported as over 500 nM.
Work on `Cc1ccc2ncc(S(=O)(=O)c3ccc(F)cc3)c(N3CCC(C)CC3)c2c1` [Compound 156] yielded a Ki of under 200 nM.
With `COc1ccc(S(=O)(=O)c2cnc3ccc(C)cc3c2N2CCC(C)CC2)cc1` [Compound 157] the Ki was 200 to 500 nM.
`Cc1ccc2ncc(S(=O)(=O)c3ccc(Cl)cc3)c(N3CCC(C)CC3)c2c1` [Compound 158] was tested, and the Ki was 200 to 500 nM.
With `Cc1ccc2ncc(S(=O)(=O)c3cccc(F)c3)c(N3CCC(C)CC3)c2c1` [Compound 159] the Ki was under 200 nM.
For `COc1cccc(S(=O)(=O)c2cnc3ccc(C)cc3c2N2CCC(C)CC2)c1` [Compound 160], the Ki was under 200 nM.
